Assay results taken from patent US8067454B2, “Thio-substituted Anthra [1, 2-d] imidazole- 6, 11-dione derivatives, preparation method and application thereof” (National Defense Medical Center, priority 2010, dated 2011).

Experiments:
[1] = tested on: telomerase (total cell lysates of lung cancer cell line H1299); assay: Telomeric Repeat Amplification Protocol (TRAP) assay, screen of telomerase inhibitors; assay type: biochemical, human; conditions: 10 μM
Procedure: Telomeric Repeat Amplification Protocol (TRAP) Assay:
Telomerase activity was detected by a modified version of the general TRAP protocol. Telomerase products were resolved by 10% polyacrylamide gel electrophoresis and visualized by staining with SYBER Green. As a source of telomerase, the total cell lysates derived from lung cancer cell line H1299 cells were used. Protein concentration of the lysates was assayed using Bio-Rad protein assay kit using BSA standards.
In the TRAP assay, if a compound can stabilize the G-quadruplex structure such that telomerase can not act on telomere, then the effect of inhibiting the telomerase can be achieved. In the FIG. 2A to FIG. 2C, DMSO treatment represents as the positive control group (P); while a negative control group (N) used 5 μl of 0.1 mg/ml RNase A (CLONTECH) in the assay. It could be observed that a number of telomeric fragments were detected in the positive control group (P), while none was detected in the negative control group (N). 10 μM was selected as the concentration used to screen compounds.

GBM8901 = assay: MTT assay, GBM8901 tumor cell; conditions: concentration 10 μM, tumor cell
[2] = tested on: SVG p12, GBM8401 and GBM8901; assay: MTT assay, normal cell versus tumor cells (categories 39-3 to 39-7); conditions: tumor cell survival rate less than 80%; for category 39-4: survival rate higher than 80% for normal cell SVG p12 and only inhibits growth of tumor cell GBM8401: FIG. 5B
GBM8401 = assay: MTT assay, GBM8401 tumor cell; conditions: concentration 10 μM, tumor cell
SVG p12 = assay: MTT assay, SVG p12 normal cell; conditions: for Cell survival rate (%) SVG p12: concentration 10 μM, normal cell

SMILES | inhibition effect against telomerase [1] | Cell survival rate (%) GBM8901 (GBM8901) | category 39-4: survival rate higher than 80% for normal cell SVG p12 and only inhibits growth of tumor cell GBM8401 [2] | Cell survival rate (%) GBM8401 (GBM8401) | category 39-5: survival rate higher than 80% for normal cell SVG p12 and only inhibits growth of tumor cell GBM8901 ([2]; FIG. 5C) | Cell survival rate (%) SVG p12 (SVG p12) | without cell toxicity for normal cell SVGP p12 (SVG p12; survival rate higher than 80%) | category 39-3: survival rate higher than 80% for normal cell SVG p12 and inhibits growth of both tumor cells GBM8401 and GBM8901 ([2]; FIG. 5A)
O=C(Sc1nc2ccc3c(c2[nH]1)C(=O)c1ccccc1C3=O)c1ccccc1[N+](=O)[O-] [f2-1, S-6,11-dioxo-6,11-dihydro-1H-anthra[1,2-d]imidazol-2-yl 2-nitrobenzothioate] | exhibited inhibition effect against telomerase | 58 ± 3% | in this category | – | – | – | – | –
Cc1cc(C(=O)Sc2nc3ccc4c(c3[nH]2)C(=O)c2ccccc2C4=O)c(C)o1 [f2-6, S-6,11-dioxo-6,11-dihydro-1H-anthra[1,2-d]imidazol-2-yl 2,5-dimethylfuran-3-carbothioate] | exhibited inhibition effect against telomerase | 38 ± 7% | in this category | – | – | – | – | –
O=C1c2ccccc2C(=O)c2c1ccc1nc(SCCCCCBr)[nH]c21 [f1-9, 2-(5-bromopentylthio)-1H-anthra[1,2-d]imidazole-6,11-dione] | exhibited inhibition effect against telomerase | – | – | 62 ± 19% | in this category | – | – | –
C=CCSc1nc2ccc3c(c2[nH]1)C(=O)c1ccccc1C3=O [f1-19, 2-(allylthio)-1H-anthra[1,2-d]imidazole-6,11-dione] | exhibited inhibition effect against telomerase | 50 ± 6% | – | 42 ± 18% | – | 89 ± 5% | without cell toxicity for normal cell SVGP p12 | in this category
O=C1c2ccccc2C(=O)c2c1ccc1nc(SCC(=O)N3CCCC3)[nH]c21 [f1-21, 2-(2-oxo-2-(pyrrolidin-1-yl)ethylthio)-1H-anthra[1,2-d]imidazole-6,11-dione] | exhibited inhibition effect against telomerase | 38 ± 5% | – | 30 ± 10% | – | 63 ± 1% | – | –
